According to paper doi:10.64898/2025.12.04.692396, “Mechanisms of ligand recognition and channel opening for P2X2 receptors in lipid nanodiscs” (bioRxiv, 2025):
Numbering of substitutions follows the chain as printed.

Key:
Type in all cases: cell-based
[1] = target: T1, hP2X2R (human P2X2 receptor) (Homo sapiens, UniProt Q9UBL9, R130A); assay: whole-cell patch clamp in HEK293 cells, EDTA solution
T1 construct: gene P2RX2; hP2X2-L
T1 sequence (Q9UBL9 1-471 R130A): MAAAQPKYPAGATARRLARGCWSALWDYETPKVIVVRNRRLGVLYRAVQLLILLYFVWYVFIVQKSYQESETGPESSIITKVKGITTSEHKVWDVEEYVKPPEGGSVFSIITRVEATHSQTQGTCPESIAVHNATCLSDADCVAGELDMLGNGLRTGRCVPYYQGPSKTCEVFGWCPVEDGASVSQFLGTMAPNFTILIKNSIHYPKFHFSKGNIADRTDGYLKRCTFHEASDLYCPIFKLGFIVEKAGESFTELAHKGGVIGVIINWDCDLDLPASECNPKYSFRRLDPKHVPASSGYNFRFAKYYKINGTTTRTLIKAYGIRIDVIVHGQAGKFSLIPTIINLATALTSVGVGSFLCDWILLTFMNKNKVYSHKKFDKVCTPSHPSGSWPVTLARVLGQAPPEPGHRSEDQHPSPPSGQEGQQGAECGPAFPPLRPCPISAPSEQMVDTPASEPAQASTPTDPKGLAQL

[2] = target: T2, hP2X2R (human P2X2 receptor) (Homo sapiens, UniProt Q9UBL9, R130E); assay: as above
T2 construct: gene P2RX2; hP2X2-L
T2 sequence (Q9UBL9 1-471 R130E): T1 sequence (Q9UBL9 1-471 R130A) with A130E

[3] = target: T3, hP2X2R (human P2X2 receptor) (Homo sapiens, UniProt Q9UBL9); assay: cryo-EM structure in nanodiscs; whole-cell patch clamp EC50 in EDTA ([…] with divalent cations)
T3 construct: gene P2RX2; hP2X2-L (Q9UBL9-1) with ATP4−; hP2X2-S (Q9UBL9-2) with Mg-ATP2−; homotrimer in MSP1E3D1 lipid nanodiscs
T3 sequence (Q9UBL9 1-404 isoform Q9UBL9-2): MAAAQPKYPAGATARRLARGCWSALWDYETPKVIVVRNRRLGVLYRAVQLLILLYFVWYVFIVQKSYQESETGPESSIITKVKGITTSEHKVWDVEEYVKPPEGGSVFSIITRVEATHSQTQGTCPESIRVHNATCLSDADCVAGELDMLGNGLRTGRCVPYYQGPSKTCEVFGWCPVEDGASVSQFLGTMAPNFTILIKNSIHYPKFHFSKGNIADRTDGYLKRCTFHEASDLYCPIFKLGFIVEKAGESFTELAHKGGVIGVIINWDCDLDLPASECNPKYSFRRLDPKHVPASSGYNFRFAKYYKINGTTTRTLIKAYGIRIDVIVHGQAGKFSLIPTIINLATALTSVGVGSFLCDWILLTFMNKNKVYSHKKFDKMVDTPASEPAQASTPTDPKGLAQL

[4] = target: T4, hP2X2R (human P2X2 receptor) (Homo sapiens, UniProt Q9UBL9)
T4 construct: gene P2RX2; hP2X2-L
T4 sequence (Q9UBL9 1-471): T1 sequence (Q9UBL9 1-471 R130A) with A130R

[5] = target: T1, hP2X2R (human P2X2 receptor)

SMILES	EC50 [1] [µM]	EC50 [2] [µM]	EC50 [3] [µM]	whole-cell patch clamp in HEK293 cells (weak activation) [4]	whole-cell patch clamp in HEK293 cells (weak activation) [5]
Nc1ncnc2c1ncn2[C@@H]1O[C@H](COP(=O)(O)OP(=O)(O)OP(=O)(O)O)[C@@H](O)[C@H]1O [ATP]	3.7 ± 0.9	4 ± 0.9	1.4 ± 0.4		
Nc1ncnc2c1ncn2[C@@H]1O[C@H](COP(=O)(O)CP(=O)(O)OP(=O)(O)O)[C@@H](O)[C@H]1O [α,β-Methylene-ATP]				α,β-Methylene-ATP could only weakly activate either WT hP2X2 or the R130A mutant	α,β-Methylene-ATP could only weakly activate either WT hP2X2 or the R130A mutant
